Where two headings read alike, the source gives them in different places.
Tested on: SARS-CoV-2 strain USA-WA1/2020
Test: microbe, parasite or virus in culture
Format: cell-based
Settings: Severe acute respiratory syndrome coronavirus 2, HeLa-ACE2, 24 h, read-out: EC50, uM (Hela)
[1] = HeLa-ACE2 cells, SARS-CoV-2 infection, 24 h, class symbols
[2] = HeLa-ACE2 cells, SARS-CoV-2 infection, 24 h, bound printed in cell

Row | SMILES | EC50 [1] [µM] | further results
1 | O=C(N[C@@H](C[C@@H]1CCNC1=O)C(=O)COC(F)(F)F)C(CC1CCOCC1)NC(=O)[C@H]1CCCO1 (stereo partly drawn) [Compound 298, (2R)-N-(1-oxo-1-(((S)-3-oxo-1-((S)-2-oxopyrrolidin-3-yl)-4-(trifluoromethoxy)butan-2-yl)amino)-3-(tetrahydro-2H-pyran-4-yl)propan-2-yl)tetrahydrofuran-2-carboxamide] | 0.5 to 1 | 
2 | O=C(N[C@@H](C[C@@H]1CCNC1=O)C(=O)COC(F)(F)F)C1[C@H]2CCC[C@H]2CN1C(=O)[C@H]1CCCO1 (stereo partly drawn) [Compound 299, (1S,3aR,6aS)-N-((S)-3-oxo-1-((S)-2-oxopyrrolidin-3-yl)-4-(trifluoromethoxy)butan-2-yl)-2-((R)-tetrahydrofuran-2-carbonyl)octahydro-cyclopenta[c]pyrrole-l-carboxamide] | 0.05 to 0.2 | 
3 | O=C1NCC[C@H]1C[C@H](NC(=O)[C@H](CC1CC1)NC(=O)[C@H]1CCCO1)C(=O)COC(F)(F)F [Compound 300, (R)-N-((S)-3-cyclopropyl-1-oxo-1-(((S)-3-oxo-1-((S)-2-oxopyrrolidin-3-yl)-4-(trifluoromethoxy)butan-2-yl)amino)propan-2-yl)tetrahydrofuran-2-carboxamide] | < 0.05 | 
4 | CC(C)(C)C[C@H](NC(=O)[C@H]1CCCO1)C(=O)N[C@@H](C[C@@H]1CCNC1=O)C(=O)COC(F)(F)F [Compound 301, (R)-N-((S)-4,4-dimethyl-1-oxo-1-(((S)-3-oxo-1-((S)-2-oxopyrrolidin-3-yl)-4-(trifluoromethoxy)butan-2-yl)amino)pentan-2-yl)tetrahydrofuran-2-carboxamide] | < 0.05 | 
5 | O=C1NCC[C@H]1C[C@H](NC(=O)[C@@H]1C[C@H]2C[C@H]2N1C(=O)[C@H]1CCCO1)C(=O)COC(F)(F)F [Compound 303, (1R,3S,5R)-N-((S)-3-oxo-1-((S)-2-oxopyrrolidin-3-yl)-4-(trifluoromethoxy)butan-2-yl)-2-((R)-tetrahydrofuran-2-carbonyl)-2-azabicyclo[3.1.0]-hexane-3-carboxamide] |  | EC50 [2]: > 1 µM
6 | O=C1NCC[C@H]1C[C@H](NC(=O)[C@@H]1C[C@H]2C[C@H]2N1C(=O)[C@@H]1CCCO1)C(=O)COC(F)(F)F [Compound 304, (1R,3S,5R)-N-(3-oxo-1-((S)-2-oxopyrrolidin-3-yl)-4-(trifluoromethoxy)butan-2-yl)-2-((S)-tetrahydrofuran-2-carbonyl)-2-azabicyclo[3.1.0]-hexane-3-carboxamide] |  | EC50 [2]: > 1 µM
7 | O=C1NCC[C@H]1C[C@H](NC(=O)[C@@H]1CC2(CC2)CN1C(=O)[C@H]1CCCO1)C(=O)COC(F)(F)F [Compound 305, (S)-N-((S)-3-oxo-1-((S)-2-oxopyrrolidin-3-yl)-4-(trifluoromethoxy)butan-2-yl)-5-((R)-tetrahydrofuran-2-carbonyl)-5-azaspiro[2.4]heptane-6-carboxamide] | 0.2 to 0.5 | 
8 | CC1(C)[C@@H]2[C@@H](C(=O)N[C@@H](C[C@@H]3CCNC3=O)C(=O)COC(F)(F)F)N(C(=O)[C@H]3COCCO3)C[C@@H]21 [Compound 306, (1R,2S,5S)-3-((R)-1,4-dioxane-2-carbonyl)-6,6-dimethyl-N-((S)-3-oxo-1-((S)-2-oxopyrrolidin-3-yl)-4-(trifluoromethoxy)butan-2-yl)-3-azabicyclo[3.1.0]-hexane-2-carboxamide] | 0.05 to 0.2 | 
9 | CC1(C)[C@@H]2[C@@H](C(=O)N[C@@H](C[C@@H]3CCNC3=O)C(=O)COC(F)(F)F)N(C(=O)[C@@H]3COCCO3)C[C@@H]21 [Compound 307, (1R,2S,5S)-3-((S)-1,4-dioxane-2-carbonyl)-6,6-dimethyl-N-((S)-3-oxo-1-((S)-2-oxopyrrolidin-3-yl)-4-(trifluoromethoxy)butan-2-yl)-3-azabicyclo[3.1.0]hexane-2-carboxamide] | 0.2 to 0.5 | 
10 | O=C1NCC[C@H]1C[C@H](NC(=O)[C@@H]1[C@H]2CCC[C@H]2CN1C(=O)C12CCC(CC1)O2)C(=O)COC(F)(F)F [Compound 308, (1S,3aR,6aS)-2-(7-oxabicyclo[2.2.1]-heptane-1-carbonyl)-N-((S)-3-oxo-1-((S)-2-oxopyrrolidin-3-yl)-4-(trifluoromethoxy)butan-2-yl)octahydrocyclo-penta[c]pyrrole-1-carboxamide] | 0.05 to 0.2 | 
11 | CC(C)C[C@H](NC(=O)C12CCC(CC1)O2)C(=O)N[C@@H](C[C@@H]1CCNC1=O)C(=O)COC(F)(F)F [Compound 309, N-((S)-4-methyl-1-oxo-1-(((S)-3-oxo-1-((S)-2-oxopyrrolidin-3-yl)-4-(trifluoromethoxy)butan-2-yl)amino)pentan-2-yl)-7-oxabicyclo [2.2.1]-heptane-1-carboxamide] | < 0.05 | 
12 | CC1(C(=O)N2C[C@@H]3CCC[C@@H]3[C@H]2C(=O)N[C@@H](C[C@@H]2CCNC2=O)C(=O)COC(F)(F)F)CCCO1 (stereo partly drawn) [Compound 310, (1S,3aR,6aS)-2-(2-methyltetrahydrofuran-2-carbonyl)-N-((S)-3-oxo-1-((S)-2-oxopyrrolidin-3-yl)-4-(trifluoromethoxy)butan-2-yl)octahydro-cyclopenta[c]pyrrole-1-carboxamide] |  | EC50 [2]: > 1 µM
13 | CC12COC(C(=O)N3C[C@@H]4CCC[C@@H]4[C@H]3C(=O)N[C@@H](C[C@@H]3CCNC3=O)C(=O)COC(F)(F)F)(C1)C2 [Compound 312, (1S,3aR,6aS)-2-(4-methyl-2-oxabicyclo-[2.1.1]hexane-1-carbonyl)-N-((S)-3-oxo-1-((S)-2-oxopyrrolidin-3-yl)-4-(trifluoromethoxy)butan-2-yl)octahydrocyclo-penta[c]pyrrole-1-carboxamide] | 0.05 to 0.2 | 
14 | CC(C)C[C@H](NC(=O)C12CC(C)(CO1)C2)C(=O)N[C@@H](C[C@@H]1CCNC1=O)C(=O)COC(F)(F)F [Compound 313, 4-methyl-N-((S)-4-methyl-1-oxo-1-(((S)-3-oxo-1-((S)-2-oxopyrrolidin-3-yl)-4-(trifluoromethoxy)butan-2-yl)amino)pentan-2-yl)-2-oxabicyclo-[2.1.1]hexane-1-carboxamide] | 0.05 to 0.2 | 
15 | CC(C)C[C@H](NC(=O)C12CC(NC(=O)C(F)(F)F)(CO1)C2)C(=O)N[C@@H](C[C@@H]1CCNC1=O)C(=O)COC(F)(F)F [Compound 314, N-((S)-4-methyl-1-oxo-1-(((S)-3-oxo-1-((S)-2-oxopyrrolidin-3-yl)-4-(trifluoromethoxy)butan-2-yl)amino)pentan-2-yl)-4-(2,2,2-trifluoroacetamido)-2-oxabicyclo[2.1.1]-hexane-1-carboxamide] |  | EC50: 0.2 to 0.5 µM
16 | O=C1NCC[C@H]1C[C@H](NC(=O)[C@@H]1[C@H]2CCC[C@H]2CN1C(=O)C12CC(C(F)(F)F)(CO1)C2)C(=O)COC(F)(F)F [Compound 315, (1S,3aR,6aS)-N-((S)-3-oxo-1-((S)-2-oxopyrrolidin-3-yl)-4-(trifluoromethoxy)butan-2-yl)-2-(4-(trifluoromethyl)-2-oxabicyclo[2.1.1]-hexane-1-carbonyl)-octahydrocyclopenta-[c]pyrrole-1-carboxamide] | < 0.05 | 
17 | CC(C)C[C@H](NC(=O)C12CC(C(F)(F)F)(CO1)C2)C(=O)N[C@@H](C[C@@H]1CCNC1=O)C(=O)COC(F)(F)F [Compound 316, N-((S)-4-methyl-1-oxo-1-(((S)-3-oxo-1-((S)-2-oxopyrrolidin-3-yl)-4-(trifluoromethoxy)butan-2-yl)amino)pentan-2-yl)-4-(trifluoromethyl)-2-oxabicyclo-[2.1.1]hexane-1-carboxamide] | < 0.05 | 
18 | O=C1NCC[C@H]1C[C@H](NC(=O)[C@@H]1CC2(CC2)CN1C(=O)C12CC(C(F)(F)F)(CO1)C2)C(=O)COC(F)(F)F [Compound 317, (6S)—N-[(2S)-3-oxo-1-[(3S)-2-oxopyrrolidin-3-yl]-4-(trifluoromethoxy)butan-2-yl]-5-[4-(trifluoromethyl)-2-oxabicyclo[2.1.1]hexane-1-carbonyl]-5-azaspiro[2.4]heptane-6-carboxamide] | < 0.05 | 
19 | CC1(C)[C@@H]2[C@@H](C(=O)N[C@@H](C[C@@H]3CCNC3=O)C(=O)COC(F)(F)F)N(C(=O)C34CC(C(F)(F)F)(CO3)C4)C[C@@H]21 [Compound 318, (1R,2S,5S)-6,6-dimethyl-N-((S)-3-oxo-1-((S)-2-oxopyrrolidin-3-yl)-4-(trifluoromethoxy)butan-2-yl)-3-(4-(trifluoromethyl)-2-oxabicyclo[2.1.1]-hexane-1-carbonyl)-3-azabicyclo[3.1.0]-hexane-2-carboxamide] | 0.05 to 0.2 | 
20 | CC(C)C[C@H](NC(=O)C12CC(C(F)F)(CO1)C2)C(=O)N[C@@H](C[C@@H]1CCNC1=O)C(=O)COC(F)(F)F [Compound 319, 4-(difluoromethyl)-N-((S)-4-methyl-1-oxo-1-(((S)-3-oxo-1-((S)-2-oxopyrrolidin-3-yl)-4-(trifluoromethoxy)butan-2-yl)amino)pentan-2-yl)-2-oxabicyclo-[2.1.1]hexane-1-carboxamide] | < 0.05 | 
21 | O=C1NCC[C@H]1C[C@H](NC(=O)[C@@H]1CC2(CC2)CN1C(=O)C12CC(C(F)F)(CO1)C2)C(=O)COC(F)(F)F [Compound 320, (S)-5-(4-(difluoromethyl)-2-oxabicyclo[2.1.1]-hexane-1-carbonyl)-N-((S)-3-oxo-1-((S)-2-oxopyrrolidin-3-yl)-4-(trifluoromethoxy)butan-2-yl)-5-azaspiro[2.4]-heptane-6-carboxamide] | 0.2 to 0.5 | 
22 | O=C1NCC[C@H]1C[C@H](NC(=O)[C@@H]1[C@H]2CCC[C@H]2CN1C(=O)C12CC(C(F)F)(CO1)C2)C(=O)COC(F)(F)F [Compound 321, (1S,3aR,6aS)-2-(4-(difluoromethyl)-2-oxabicyclo[2.1.1]hexane-1-carbonyl)-N-((S)-3-oxo-1-((S)-2-oxopyrrolidin-3-yl)-4-(trifluoromethoxy)butan-2-yl)octahydrocyclopenta-[c]pyrrole-1-carboxamide] | 0.05 to 0.2 | 

— patent US11708348B2, “Protease inhibitors for treatment of coronavirus infections” (The Scripps Research Institute, priority 2021, dated 2023)
